Results taken from PubChem BioAssay AID2060488 (Molecular Pharmacology Branch, DTP, NCI, 2025).

System: 966289-007-R4-J1-PDC complex spheroid viability
Test: Anticancer human tumor 966289-007-R4-J1-PDC patient-derived pancreatic adenocarcinoma cell line growth inhibition [GQUAD]
Conditions: for IC50: curve of first compound; for viability, T/C: stronger effect = lower value; active = viability on the fitted dose curve at most 10% of control; inactive = the rest
In short: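 Multi-cell-type spheroids of tumor cells with HUVEC and mesenchymal stem cells, treated with drug combinations. Concentrations descend in half-log steps from near clinical Cmax, or from 10 microM where Cmax is unknown; viability read-out.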

[1] = second compound 0.0316 µM, first compound 0.0316 µM
[2] = second compound 0.0316 µM, first compound 0.1 µM
[3] = second compound 0.0316 µM, first compound 0.316 µM
[4] = second compound 0.0316 µM, first compound 1 µM
[5] = second compound 0.0316 µM, first compound 3.16 µM
[6] = second compound 0.0316 µM, first compound 10 µM
[7] = second compound 0.1 µM, first compound 0.0316 µM
[8] = second compound 0.1 µM, first compound 0.1 µM
[9] = second compound 0.1 µM, first compound 0.316 µM
[10] = second compound 0.1 µM, first compound 1 µM
[11] = second compound 0.1 µM, first compound 3.16 µM
[12] = second compound 0.1 µM, first compound 10 µM
[13] = second compound 0.316 µM, first compound 0.0316 µM
[14] = second compound 0.316 µM, first compound 0.1 µM
[15] = second compound 0.316 µM, first compound 0.316 µM
[16] = second compound 0.316 µM, first compound 1 µM
[17] = second compound 0.316 µM, first compound 3.16 µM
[18] = second compound 0.316 µM, first compound 10 µM
[19] = second compound 1 µM, first compound 0.0316 µM
[20] = second compound 1 µM, first compound 0.1 µM
[21] = second compound 1 µM, first compound 0.316 µM
[22] = second compound 1 µM, first compound 1 µM
[23] = second compound 1 µM, first compound 3.16 µM
[24] = second compound 1 µM, first compound 10 µM
[25] = second compound 3.16 µM, first compound 0.0316 µM
[26] = second compound 3.16 µM, first compound 0.1 µM
[27] = second compound 3.16 µM, first compound 0.316 µM
[28] = second compound 3.16 µM, first compound 1 µM
[29] = second compound 3.16 µM, first compound 3.16 µM
[30] = second compound 3.16 µM, first compound 10 µM
[31] = second compound 10 µM, first compound 0.0316 µM
[32] = second compound 10 µM, first compound 0.1 µM
[33] = second compound 10 µM, first compound 0.316 µM
[34] = second compound 10 µM, first compound 1 µM
[35] = second compound 10 µM, first compound 3.16 µM
[36] = second compound 10 µM, first compound 10 µM
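Note: spheroids exposed to the agents for seven days before readout.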
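Throughout, for viability, T/C: percent viability relative to DMSO vehicle control wells taken as 100%.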

CC1COCCN1c1cc(-c2ccnn2C)c2ccnc(-c3ccn[nH]3)c2n1 (centres undefined) + Cc1[nH]c2ccc(F)cc2c1-c1nc2c3cccnc3c3ncccc3c2[nH]1
inactive: viability, T/C [1] 114% | viability, T/C [2] 77.8% | viability, T/C [3] 17.3% | viability, T/C [7] 115% | viability, T/C [8] 73.2% | viability, T/C [9] 17% | viability, T/C [13] 110% | viability, T/C [14] 80.3% | viability, T/C [15] 15.6% | viability, T/C [19] 105% | viability, T/C [20] 78.1% | viability, T/C [21] 21.1% | viability, T/C [25] 94.4% | viability, T/C [26] 39.3% | viability, T/C [31] 96.4% | viability, T/C [32] 28.4%
69.3 nM: IC50 (second compound 10 µM)
170 nM: IC50 (second compound 0.0316 µM)
active: viability, T/C [4] 5.52% | viability, T/C [5] 4.65% | viability, T/C [6] 3.39% | viability, T/C [10] 6.08% | viability, T/C [11] 4.45% | viability, T/C [12] 3% | viability, T/C [16] 7.15% | viability, T/C [17] 4.49% | viability, T/C [18] 3.06% | viability, T/C [22] 8.54% | viability, T/C [23] 5.16% | viability, T/C [24] 2.92% | viability, T/C [27] 8.27% | viability, T/C [28] 7.24% | viability, T/C [29] 5.24% | viability, T/C [30] 4.9% | viability, T/C [33] 5.29% | viability, T/C [34] 5.42% | viability, T/C [35] 5.48% | viability, T/C [36] 5.5%
177 nM: IC50 (second compound 1 µM)
172 nM: IC50 (second compound 0.316 µM)
161 nM: IC50 (second compound 0.1 µM)
79.9 nM: IC50 (second compound 3.16 µM)

CC1COCCN1c1cc(C2(O)CC3CCC(C2)O3)c2cnn(-c3ccn[nH]3)c2n1 (centres undefined) + Cc1[nH]c2ccc(F)cc2c1-c1nc2c3cccnc3c3ncccc3c2[nH]1
60.9 nM: IC50 (second compound 3.16 µM)
131 nM: IC50 (second compound 1 µM)
active: viability, T/C [4] 5.11% | viability, T/C [5] 4.75% | viability, T/C [6] 3.95% | viability, T/C [10] 5.55% | viability, T/C [11] 4.82% | viability, T/C [12] 4.44% | viability, T/C [16] 5.9% | viability, T/C [17] 4.9% | viability, T/C [18] 4.84% | viability, T/C [22] 5.99% | viability, T/C [23] 4.35% | viability, T/C [24] 4.34% | viability, T/C [28] 5.99% | viability, T/C [29] 6% | viability, T/C [30] 4.42% | viability, T/C [33] 6.61% | viability, T/C [34] 5.67% | viability, T/C [35] 4.73% | viability, T/C [36] 4.11%
inactive: viability, T/C [1] 112% | viability, T/C [2] 55.6% | viability, T/C [3] 13.9% | viability, T/C [7] 111% | viability, T/C [8] 53.8% | viability, T/C [9] 14% | viability, T/C [13] 105% | viability, T/C [14] 63.2% | viability, T/C [15] 11.7% | viability, T/C [19] 98.5% | viability, T/C [20] 61.1% | viability, T/C [21] 14.2% | viability, T/C [25] 81.8% | viability, T/C [26] 25.1% | viability, T/C [27] 11.7% | viability, T/C [31] 71.7% | viability, T/C [32] 18.7%
50.6 nM: IC50 (second compound 10 µM)
117 nM: IC50 (second compound 0.0316 µM)
112 nM: IC50 (second compound 0.1 µM)
134 nM: IC50 (second compound 0.316 µM)
